The nature of data set [1]: Blood-brain distribution determination in SD rats. The data set is classed as in vivo. The note with it: female SD rats, oral, 5 mg/kg; for Kp / AUC(0-t): rat; for Kp: brain/plasma, read-out: Brain/plasma exposure ratio; for AUC(0-t): plasma, read-out: Plasma area under the curve AUC0-t. The procedure:
Test Example 4: Blood-Brain Distribution Determination in SD Rats
In this study, female SD rats were selected as test animals. The LC/MS/MS method was used to quantitatively determine the drug concentrations of the test compounds in plasma and brain tissues at three different time points (0.5 h, 2 h, 4 h or 6 h) after oral administration (5 mg/kg or 10 mg/kg) in rats, so as to evaluate the pharmacokinetic profile of the test drugs in rats.
The example compounds of the present disclosure, made in house.
SD rats (female, 180-220 g, 6-8 weeks old, purchased from Beijing Vital River Laboratory Animal Technology Co., Ltd., with animal production license number SCXK (Beijing) 2021-0006).
Vehicle for oral administration: 5% DMSO+95% PEG400 or a mixture of (50% Labrasol+50% Water).
The test compound, formulated as a clear solution or suspension, was administered to overnight-fasted SD rats via oral gavage. For oral gavage, blood samples (0.25 mL) were collected via jugular vein puncture at pre-dose (0 h) and 0.5 h, 2 h, 4 h or 6 h post-dose. The samples were placed into sodium heparin anticoagulant tubes. After collection, the blood samples were placed on wet ice and centrifuged within 1 hour to separate the plasma. The separated plasma was stored frozen in a −80° C. freezer. After blood collection, the animals were euthanized by cervical dislocation. The whole brain tissue was dissected out. The collected brain tissue was first rinsed with physiological saline, blotted dry with absorbent paper, and then stored frozen in a −80° C. freezer. Prior to analysis, the brain tissue samples and plasma samples were taken out from the −80° C. freezer. After the brain tissue samples were completely thawed, a given amount of brain tissue was weighed, and 50% methanol/water was added for homogenization. Drug concentrations in plasma and brain tissues were determined using the LC-MS/MS method, and the relevant pharmacokinetic parameters were calculated using the non-compartmental model with linear-log trapezoidal method in Phoenix WinNonlin 8.2.0 pharmacokinetic software.

A further data set addresses T1, V1aR (Homo sapiens, UniProt P37288).
T1 construct: expressed in transfected cells; host or cells: V1a-CHO stably transfected cell line
As to the kind of experiment: Ca2+ mobilization in cells stably expressing V1aR (FLIPR, antagonist mode). In kind it is cell-based. The note with it: V1a-CHO stably transfected cell line. (In general: Calcium assays in cells follow changes in intracellular calcium, usually with a dye or a luminescent sensor.)

pIC50: −log10 of the molar value.

T1 sequence (P37288 whole entry, species assumed): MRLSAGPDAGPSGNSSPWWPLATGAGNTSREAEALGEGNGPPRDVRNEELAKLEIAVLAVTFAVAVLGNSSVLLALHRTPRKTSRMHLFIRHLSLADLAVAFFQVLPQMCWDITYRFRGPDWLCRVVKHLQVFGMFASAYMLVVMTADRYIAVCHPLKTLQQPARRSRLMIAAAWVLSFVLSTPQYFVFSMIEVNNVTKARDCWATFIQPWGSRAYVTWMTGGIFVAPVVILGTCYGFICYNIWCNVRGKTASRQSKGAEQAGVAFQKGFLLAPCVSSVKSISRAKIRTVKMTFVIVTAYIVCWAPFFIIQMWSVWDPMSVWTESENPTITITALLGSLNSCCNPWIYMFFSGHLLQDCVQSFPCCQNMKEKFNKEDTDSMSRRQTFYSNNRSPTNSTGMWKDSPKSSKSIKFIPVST

Regarding `CON=C1CC(CO)N(C(=O)c2ccc(-c3cccc(C#N)c3C)c3c2OCO3)C1` (single isomer, unassigned) [Example C0099], in data set [1], the “Brain tissue area under the curve AUC0-t” value worked out at 150 ng·h/g, the Kp was 0.1 and the AUC(0-t) worked out at 1460 ng·h/mL. Further, the pIC50 – broadly, the IC50 on a negative log10 scale, so that one unit is a factor of ten – against V1aR is 5.28.
The matching figures for `CO/N=C1/C[C@@H]([C@@H](C)O)N(C(=O)c2ccc(-c3cccc(C#N)c3C)cc2)C1` (single isomer, unassigned) [Example C0112]: 818 ng·h/g, 0.52, 1570 ng·h/mL and 6.22.
As to `CO/N=C1/C[C@@H](CO)N(C(=O)c2ccc(-c3cccc(C#N)c3Cl)cc2)C1` [Example A0203, 2-Chloro-3-(4-[(2S, 4Z)-2-(hydroxymethyl)-4-(methoxyimino)pyrrolidine-1-carbonyl]phenyl)benzonitrile], in data set [1], the “Brain tissue area under the curve AUC0-t” value was 2579 ng·h/g, the Kp worked out at 0.39 and the AUC(0-t) stood at 6670 ng·h/mL. This molecule also gave a pIC50 at V1aR of 5.87.
Take `CO/N=C1/C[C@@H](CO)N(C(=O)c2ccc(-c3cccc(C#N)c3C)cc2)C1` [Example C0058, (S, Z)-4′-(2-(Hydroxymethyl)-4-(methoxyimino)pyrrolidine-1-carbonyl)-2-methyl-[1,1′-biphenyl]-3-carbonitrile]: in data set [1], the “Brain tissue area under the curve AUC0-t” value was determined as 1109 ng·h/g, the Kp came to 0.32 and the AUC(0-t) is 3520 ng·h/mL. Besides, at V1aR, the pIC50 is 5.65.
For `CO/N=C1/C[C@@H](CO)N(C(=O)c2ccc(-c3cc(F)cc(C#N)c3C)c3c2OCCO3)C1` [Example C0152, (S,Z)-5-Fluoro-3-(8-(2-(hydroxymethyl)-4-(methoxyimino)pyrrolidine-1-carbonyl)-2,3-dihydrobenzo[b][1,4]dioxin-5-yl)-2-methylbenzonitrile] the same measures were 169 ng·h/g, 0.08, 2050 ng·h/mL and 5.01.

The record behind these values is patent publication US20260248763A1 (BIO GENUINE (SHANGHAI) BIOTECH CO., LTD, priority 2023, published 2026).
